Measured values: patent US5336768A, “Antibacterial cephalosporin compounds” (Hoffmann-La Roche Inc., priority 1988, dated 1994)
Structures can show the parent of a compound that is named as a salt. Where two headings read alike, the source gives them in different places.

Tests used:
Experiment in all cases: In vitro MIC, Agar Dilution Method
Type in all cases: cell-based
[1] = test system: Staph. aureus Smith; conditions: Staphylococcus aureus, read-out: In Vitro MIC
Source text: (§1) The in vitro activity of the compounds of the present invention as measured by the Minimum Inhibitory Concentration (MIC) in micrograms/ml utilizing the Agar Dilution Method against a variety of Gram-positive and Gram-negative organisms, is as follows: […]

[2] = test system: Str. pneumoniae 6301; conditions: Streptococcus pneumoniae
Source text: as §1

[3] = test system: E. coli ATCC 25922; conditions: Escherichia coli, ATCC25922
Source text: as §1

[4] = test system: Prot. vulgaris ATCC 6380; conditions: Proteus vulgaris
Source text: as §1

[5] = test system: Prot. mirabilis 90
Source text: as §1

[6] = test system: Ps. aeruginosa 18SH; conditions: Pseudomonas aeruginosa, read-out: In Vitro MIC
Source text: as §1

[7] = test system: Prot. Vulqaris 1028 BC; conditions: read-out: In Vitro MIC
Source text: as §1

[8] = test system: Ps. aeruginosa 8780; conditions: Pseudomonas aeruginosa
Source text: as §1

[9] = test system: Ser. marcescens 1071; conditions: Serratia marcescens
Source text: as §1

[10] = test system: Ps. aeruginosa 765
Source text: as §1

[11] = test system: Ser. marcescens SM; conditions: Serratia marcescens, read-out: In Vitro MIC
Source text: as §1

[12] = test system: E. coli TEM-1; conditions: Escherichia coli, TEM1, read-out: In Vitro MIC
Source text: as §1

[13] = test system: Str. pyogenes 4; conditions: Streptococcus pyogenes
Source text: as §1

[14] = test system: Enter. cloacae P99; conditions: Enterobacter cloacae
Source text: as §1

[15] = test system: E. coli 257; conditions: Escherichia coli
Source text: as §1

[16] = test system: Cit. freundii BS-16; conditions: Citrobacter freundii, BS16
Source text: as §1

[17] = test system: Str. faecalis ATCC 29212; conditions: Enterococcus faecalis, ATCC29212
Source text: as §1

[18] = test system: Ps. aeruginosa ATCC 27853; conditions: Pseudomonas aeruginosa
Source text: as §1

[19] = test system: Staph. aureus 753
Source text: as §1

[20] = test system: Ps. aeruginosa 5712; conditions: Pseudomonas aeruginosa
Source text: as §1

[21] = test system: Staph. aureus 67; conditions: Staphylococcus aureus
Source text: as §1

[22] = test system: Staph. aureus ATCC 29213; conditions: Staphylococcus aureus
Source text: as §1

[23] = test system: Enter. cloacae 5699; conditions: Enterobacter cloacae
Source text: as §1

[24] = test system: K. pneumoniae A; conditions: Klebsiella pneumoniae, read-out: In Vitro MIC
Source text: as §1

[25] = test system: Staph. aureus 10598
Source text: as §1

| SMILES | MIC [2] | MIC [3] | MIC [8] | MIC [9] | MIC [12] | MIC [13] | MIC [14] | MIC [15] | MIC [16] | MIC [17] | MIC [20] | MIC [21] | MIC [23] | further results |
| --- | --- | --- | --- | --- | --- | --- | --- | --- | --- | --- | --- | --- | --- | --- |
| CCn1cc(C(=O)O)c(=O)c2cc(F)c(N3CCN(C(=O)OCC4=C(C(=O)O)N5C(=O)[C@@H](NC(=O)/C(=N\OC)c6csc(N)n6)[C@H]5SC4)CC3)cc21 [Compound A, [6R-[6α,7β(Z)]]-7-[[(2-amino-4-thiazolyl) (methoxyimino)acetyl]amino]-3-[[[[4-(3-carboxy-1-ethyl-6-fluoro-1,4-dihydro-4-oxo-7-quinolinyl) -1-piperazinyl]carbonyl]oxy]methyl]-8-oxo-5-thia-1-azabicyclo[4.2.0]oct-2-ene-2-carboxylic acid sodium salt] | 0.0157 µg/mL | 0.25 µg/mL | 4 µg/mL | 0.5 µg/mL | 0.25 µg/mL | 0.0157 µg/mL | 0.5 µg/mL | 0.25 µg/mL | 0.5 µg/mL | 0.5 µg/mL | 16 µg/mL | 4 µg/mL | 0.5 µg/mL | MIC ([1]; Staph. aureus Smith, Agar Dilution Method): 1 µg/mL; MIC ([4]; ATCC6380, Prot. vulgaris ATCC 6380, Agar Dilution Method, read-out: In Vitro MIC): 0.0625 µg/mL; MIC ([5]; Proteus mirabilis, 90, read-out: In Vitro MIC): 0.25 µg/mL; MIC ([6]; Ps. aeruginosa 18SH, Agar Dilution Method): 4 µg/mL; MIC ([7]; Prot. Vulqaris 1028 BC, Agar Dilution Method): 0.125 µg/mL; MIC ([10]; Pseudomonas aeruginosa, Ps. aeruginosa 765, Agar Dilution Method, read-out: In Vitro MIC): 8 µg/mL; MIC [11]: 0.25 µg/mL; MIC ([18]; ATCC27853, Ps. aeruginosa ATCC 27853, Agar Dilution Method, read-out: In Vitro MIC): 8 µg/mL; MIC ([19]; Staphylococcus aureus, Staph. aureus 753, Agar Dilution Method, read-out: In Vitro MIC): 4 µg/mL; MIC ([22]; ATCC29213, Staph. aureus ATCC 29213, Agar Dilution Method, read-out: In Vitro MIC): 2 µg/mL; MIC ([24]; K. pneumoniae A, Agar Dilution Method): 0.5 µg/mL; MIC ([25]; Staphylococcus aureus, Staph. aureus 10598, Agar Dilution Method, read-out: In Vitro MIC): 2 µg/mL |
| CO/N=C(\C(=O)N[C@@H]1C(=O)N2C(C(=O)O)=C(COC(=O)N3CCN(c4cc5c(cc4F)c(=O)c(C(=O)O)cn5C4CC4)CC3)CS[C@H]12)c1csc(N)n1 [Compound B, [6R-[6α,7β(Z)]]-7-[[(2-amino-4-thiazolyl) (methoxyimino)acetyl]amino]-3-[[[[4-(3-carboxy-1-cyclopropyl-6-fluoro-1,4-dihydro-4-oxo-7-quinolinyl)-1-piperazinyl]carbonyl]oxy]methyl]-8-oxo-5-thia-1-azabicyclo[4.2.0]oct-2-ene-2-carboxylic acid sodium salt] | 0.0157 µg/mL | 0.0625 µg/mL | 2 µg/mL | 0.25 µg/mL | 0.0625 µg/mL | 0.0157 µg/mL | 0.0313 µg/mL | 0.0625 µg/mL | 0.125 µg/mL | 0.25 µg/mL | 4 µg/mL | 2 µg/mL | 0.125 µg/mL | MIC [1]: 0.5 µg/mL; MIC ([4]; ATCC6380, read-out: In Vitro MIC): 0.0625 µg/mL; MIC ([5]; Proteus mirabilis, Prot. mirabilis 90, Agar Dilution Method, read-out: In Vitro MIC): 0.25 µg/mL; MIC ([6]; 18SH): 1 µg/mL; MIC [7]: 0.0625 µg/mL; MIC ([10]; Pseudomonas aeruginosa, 765, read-out: In Vitro MIC): 1 µg/mL; MIC ([11]; Ser. marcescens SM, Agar Dilution Method): 0.125 µg/mL; MIC ([18]; ATCC27853, read-out: In Vitro MIC): 1 µg/mL; MIC ([19]; Staphylococcus aureus, 753, read-out: In Vitro MIC): 1 µg/mL; MIC ([22]; ATCC29213, read-out: In Vitro MIC): 1 µg/mL; MIC [24]: 0.0625 µg/mL; MIC ([25]; Staphylococcus aureus, 10598, read-out: In Vitro MIC): 1 µg/mL |
